Results reported in US9681664B2, “Macrocyclic picolinamides as fungicides” (Dow Agrosciences LLC, priority 2012, dated 2017).
Where two headings read alike, the source gives them in different places.

Assays:
[1] = system: Mycosphaerella graminicola; Anamorph: Septoria tritici; experiment: Leaf blotch of wheat (SEPTTR) disease control on wheat seedlings; type: in vivo; details: Zymoseptoria tritici, High volume application, 100 ppm
Experimental: Technical grades of materials were dissolved in acetone, which were then mixed with nine volumes of water containing 110 ppm Triton X-100. The fungicide solutions were applied onto wheat seedlings using an automated booth sprayer to run-off. All sprayed plants were allowed to air dry prior to further handling. All fungicides were evaluated using the aforementioned method for their activity vs. all target diseases. Wheat leaf blotch and brown rust activity were also evaluated using track spray applications, in which case the fungicides were formulated as EC formulations, containing 0.1% Trycol 5941 in the spray solutions. Wheat plants (variety Yuma) were grown from seed in a greenhouse in 50% mineral soil/50% soil-less Metro mix until the first leaf was fully emerged, with 7-10 seedlings per pot. These plants were inoculated with an aqueous spore suspension of Septoria tritici either prior to or after fungicide treatments. After inoculation the plants were kept in 100% relative humidity (one day in a dark dew chamber followed by two to three days in a lighted dew chamber at 20° C.) to permit spores to germinate and infect the leaf. The plants were then transferred to a greenhouse set at 20° C. for disease to develop. When disease symptoms were fully expressed on the 1st leaves of untreated plants, infection levels were assessed on a scale of 0 to 100 percent disease severity. Percent disease control was calculated using the ratio of disease severity on treated plants relative to untreated plants.

[2] = system: Puccinia triticina; Synonym: Puccinia recondite f. sp. tritici; experiment: Wheat brown rust (PUCCRT) disease control on wheat seedlings; type: in vivo; details: Puccinia triticina, High volume application, 100 ppm
Experimental: Technical grades of materials were dissolved in acetone, which were then mixed with nine volumes of water containing 110 ppm Triton X-100. The fungicide solutions were applied onto wheat seedlings using an automated booth sprayer to run-off. All sprayed plants were allowed to air dry prior to further handling. All fungicides were evaluated using the aforementioned method for their activity vs. all target diseases. Wheat leaf blotch and brown rust activity were also evaluated using track spray applications, in which case the fungicides were formulated as EC formulations, containing 0.1% Trycol 5941 in the spray solutions. Wheat plants (variety Yuma) were grown from seed in a greenhouse in 50% mineral soil/50% soil-less Metro mix until the first leaf was fully emerged, with 7-10 seedlings per pot. These plants were inoculated with an aqueous spore suspension of Puccinia triticina either prior to or after fungicide treatments. After inoculation the plants were kept in a dark dew room at 22° C. with 100% relative humidity overnight to permit spores to germinate and infect the leaf. The plants were then transferred to a greenhouse set at 24° C. for disease to develop. Fungicide formulation, application and disease assessment followed the procedures as described in the Example A.

[3] = 24 h, 1 Day Protectant, read-out: SEPTTR 1DP disease control
[4] = 72 h, 3 Day Curative, read-out: SEPTTR 3DC disease control
[5] = 24 h, 1 Day Protectant, read-out: PUCCRT 1DP disease control
[6] = 72 h, 3 Day Curative, read-out: PUCCRT 3DC disease control

| Structure (SMILES) | pest or weed control at 100 ppm [1, 3] [%] | pest or weed control at 100 ppm [1, 4] [%] | pest or weed control at 100 ppm [2, 5] [%] | pest or weed control at 100 ppm [2, 6] [%] |
| --- | --- | --- | --- | --- |
| C=C(C)CO[C@H]1[C@H](C)OC(=O)[C@@H](NC(=O)c2nccc(OC)c2O)CCC[C@@H]1OCC(=C)C [F14, 3-hydroxy-4-methoxy-N-((3S,7S,8S,9S)-9-methyl-7,8-bis((2-methylallyl)oxy)-2-oxooxonan-3-yl)pyridine-2-carboxamide] | < 0 | 80 to 100 | 80 to 100 | 80 to 100 |
| COc1ccnc(C(=O)N[C@H]2CCC[C@H](OCc3ccccc3)[C@@H](OCc3ccccc3)[C@H](C)OC2=O)c1O [F22] | 80 to 100 | 80 to 100 | 80 to 100 | 80 to 100 |
| COc1ccnc(C(=O)N[C@H]2CCC[C@H](OCc3ccccc3)[C@@H](Oc3ccccc3)[C@H](C)OC2=O)c1O [F23] | 80 to 100 | 80 to 100 | 80 to 100 | 80 to 100 |
| COc1ccnc(C(=O)N[C@H]2CCC[C@H](Oc3ccccc3)[C@@H](OCc3ccccc3)[C@H](C)OC2=O)c1O [F24] | 80 to 100 | 80 to 100 | 80 to 100 | 80 to 100 |
| COc1ccnc(C(=O)N[C@H]2CCC[C@H](OCC(C)C)[C@@H](Oc3ccccc3)[C@H](C)OC2=O)c1O [F25] | 80 to 100 | 80 to 100 | 80 to 100 | 80 to 100 |
| COc1ccnc(C(=O)N[C@H]2CCC[C@H](Oc3ccccc3)[C@@H](OCC(C)C)[C@H](C)OC2=O)c1O [F27] | 80 to 100 | 80 to 100 | 80 to 100 | 80 to 100 |
| COc1ccnc(C(=O)N[C@H]2CCC[C@H](Oc3ccccc3)[C@@H](OCc3ccccc3)[C@H](C)OC2=O)c1OCOC(C)=O [F32] | 80 to 100 | 80 to 100 | 80 to 100 | 80 to 100 |
| COc1ccnc(C(=O)N[C@H]2CCC[C@H](OCC(C)C)[C@@H](OC3CCCC3)[C@H](C)OC2=O)c1O [F33] | 0 to 80 | 80 to 100 | 80 to 100 | 80 to 100 |
| COc1ccnc(C(=O)N[C@H]2CCC[C@H](OCC(C)C)[C@@H](OCCCc3ccccc3)[C@H](C)OC2=O)c1O [F40] | 0 to 80 | 0 to 80 | 80 to 100 | 80 to 100 |
| COc1ccnc(C(=O)N[C@H]2CCC[C@H](OCC(C)C)[C@@H](OC(=O)C3CC3)[C@H](C)OC2=O)c1OC(C)=O [F42] | 80 to 100 | 80 to 100 | 80 to 100 | 80 to 100 |
| COc1ccnc(C(=O)N[C@H]2CCC[C@H](OCC(C)C)[C@@H](OCCCc3ccccc3)[C@H](C)OC2=O)c1OCOC(C)=O [F43] | 80 to 100 | 80 to 100 | 80 to 100 | 80 to 100 |
| COc1ccnc(C(=O)N[C@H]2CCC[C@H](Oc3ccc(F)cc3)[C@@H](Oc3ccc(F)cc3)[C@H](C)OC2=O)c1OCOC(C)=O [F48] | 80 to 100 | 80 to 100 | 80 to 100 | 80 to 100 |
| COc1ccnc(C(=O)N[C@H]2CCC[C@H](Oc3ccc(F)cc3)[C@@H](Oc3ccc(F)cc3)[C@H](C)OC2=O)c1OCOC(=O)C(C)C [F49] | 80 to 100 | 80 to 100 | 80 to 100 | 80 to 100 |
| COc1ccnc(C(=O)N[C@H]2CCC[C@H](OCC(C)C)[C@@H](OCCCC(F)(F)F)[C@H](C)OC2=O)c1OCOC(=O)C(C)C [F51] | 80 to 100 | 80 to 100 | 80 to 100 | 80 to 100 |
| COc1ccnc(C(=O)N[C@H]2CCC[C@H](OCC(C)C)[C@@H](OC(=O)C3CC3)[C@H](C)OC2=O)c1OCOC(=O)C(C)C [F52] | 80 to 100 | 80 to 100 | 80 to 100 | 80 to 100 |
| COc1ccnc(C(=O)N[C@H]2CCC[C@H](OCC(C)C)[C@@H](OC/C=C/C(F)(F)F)[C@H](C)OC2=O)c1O [F53] | 80 to 100 | 0 to 80 | 80 to 100 | 80 to 100 |
| COc1ccc(O[C@H]2CCC[C@H](NC(=O)c3nccc(OC)c3O)C(=O)O[C@@H](C)[C@@H]2Oc2ccc(F)cc2)cc1 [F54] | 80 to 100 | 0 to 80 | 80 to 100 | 80 to 100 |
| COc1ccnc(C(=O)N[C@H]2CCC[C@H](Oc3ccc(F)cc3)[C@@H](OCC(C)C)[C@H](C)OC2=O)c1O [F56] | 80 to 100 | 80 to 100 | 80 to 100 | 80 to 100 |
| COc1ccc(O[C@H]2[C@H](C)OC(=O)[C@@H](NC(=O)c3nccc(OC)c3O)CCC[C@@H]2OCC(C)C)cc1 [F57] | 80 to 100 | 80 to 100 | 80 to 100 | 80 to 100 |
| COc1ccnc(C(=O)N[C@H]2CCC[C@H](OCC(C)C)[C@@H](OC/C=C/C(F)(F)F)[C@H](C)OC2=O)c1OC(C)=O [F58] | 80 to 100 | 80 to 100 | 80 to 100 | 80 to 100 |
| COc1ccc(O[C@H]2CCC[C@H](NC(=O)c3nccc(OC)c3OCOC(C)=O)C(=O)O[C@@H](C)[C@@H]2Oc2ccc(F)cc2)cc1 [F60] | 80 to 100 | 80 to 100 | 80 to 100 | 80 to 100 |
| COc1ccnc(C(=O)N[C@H]2CCC[C@H](OCC(C)C)[C@@H](Oc3ccc(F)cc3)[C@H](C)OC2=O)c1OCOC(C)=O [F61] | 80 to 100 | 80 to 100 | 80 to 100 | 80 to 100 |
| COc1ccnc(C(=O)N[C@H]2CCC[C@H](OCC(C)C)[C@@H](Oc3ccc(F)cc3)[C@H](C)OC2=O)c1OCOC(=O)C(C)C [F62] | 80 to 100 | 80 to 100 | 80 to 100 | 80 to 100 |
| COc1ccc(O[C@H]2[C@H](C)OC(=O)[C@@H](NC(=O)c3nccc(OC)c3O)CCC[C@@H]2Oc2ccc(OC)cc2)cc1 [F64] | 0 to 80 | 0 to 80 | 0 to 80 | < 0 |
| COc1ccc(O[C@H]2CCC[C@H](NC(=O)c3nccc(OC)c3O)C(=O)O[C@@H](C)[C@@H]2OCC(C)C)cc1 [F65] | 80 to 100 | 0 to 80 | 80 to 100 | 80 to 100 |
| COc1ccc(O[C@H]2[C@H](C)OC(=O)[C@@H](NC(=O)c3nccc(OC)c3OCOC(C)=O)CCC[C@@H]2Oc2ccc(OC)cc2)cc1 [F66] | 80 to 100 | 0 to 80 | 80 to 100 | 80 to 100 |
